Results from US20130274174A1, “THERAPEUTIC COMBINATION OF DAPTOMYCIN AND PROTEIN SYNTHESIS INHIBITOR ANTIBIOTIC, AND METHODS OF USE” (priority 2011, published 2013).
≈ marks a conversion by molar mass, not a printed value. Where two headings read alike, the source gives them in different places.

Legend:
[1] = system: S. aureus ATCC 33591; assay: microbe, parasite or virus in culture; assay type: cell-based, Staphylococcus aureus; conditions: Staphylococcus aureus
Procedure, shortened: (§1)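 MW2 passaged on cation-adjusted Mueller-Hinton II agar with ¼ MIC of TR-700, TR-705, LZD, TIA, CLI, TET, VAN or TMP/SMX plus a linear DAP gradient; ATCC 33591 with ¼ MIC TR-700, TMP/SMX or VAN; DAP-only controls.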

[2] = system: S. aureus MW2 (NRS123); assay: microbe, parasite or virus in culture; assay type: cell-based, Staphylococcus aureus; conditions: for MIC: Staphylococcus aureus
Procedure, shortened: as §1

Structure (SMILES): CN[C@H](CC(C)C)C(=O)N[C@H]1C(=O)N[C@@H](CC(N)=O)C(=O)N[C@H]2C(=O)N[C@H]3C(=O)N[C@H](C(=O)N[C@H](C(=O)O)c4cc(O)cc(O)c4-c4cc3ccc4O)[C@H](O)c3ccc(c(Cl)c3)Oc3cc2cc(c3O[C@@H]2O[C@H](CO)[C@@H](O)[C@H](O)[C@H]2O[C@H]2C[C@](C)(N)[C@H](O)[C@H](C)O2)Oc2ccc(cc2Cl)[C@H]1O [VAN, vancomycin]
- MIC ([1]; ATCC33591, passage 0, ATCC 33591 WT): 2 µg/mL (≈ 1.38 µM)
- MIC ([1]; ATCC33591, passage 5, selection group DAP): 4 µg/mL (≈ 2.76 µM)
- MIC ([1]; ATCC33591, passage 5, selection group DAP + TMP/SMX): 4 µg/mL
- MIC ([1]; ATCC33591, passage 5, selection group DAP + TR-700): 2 µg/mL
- MIC ([1]; ATCC33591, passage 5, selection group DAP + VAN): 4 µg/mL
- MIC ([1]; ATCC33591, passage 10, selection group DAP): 4 µg/mL (≈ 2.76 µM)
- MIC ([1]; ATCC33591, passage 10, selection group DAP + TMP/SMX): 8 µg/mL
- MIC ([1]; ATCC33591, passage 10, selection group DAP + TR-700): 4 µg/mL
- MIC ([1]; ATCC33591, passage 10, selection group DAP + VAN): 4 µg/mL
- MIC ([1]; ATCC33591, passage 15, selection group DAP): 4 µg/mL (≈ 2.76 µM)
- MIC ([1]; ATCC33591, passage 15, selection group DAP + TMP/SMX): 4 µg/mL
- MIC ([1]; ATCC33591, passage 15, selection group DAP + TR-700): 4 µg/mL
- MIC ([1]; ATCC33591, passage 15, selection group DAP + VAN): 4 µg/mL
- MIC ([1]; ATCC33591, passage 20, selection group DAP): 4 µg/mL (≈ 2.76 µM)
- MIC ([1]; ATCC33591, passage 20, selection group DAP + TMP/SMX): 4 µg/mL
- MIC ([1]; ATCC33591, passage 20, selection group DAP + TR-700): 4 µg/mL
- MIC ([1]; ATCC33591, passage 20, selection group DAP + VAN): 8 µg/mL
- MIC ([1]; ATCC33591, passage 25, selection group DAP): 4 µg/mL (≈ 2.76 µM)
- MIC ([1]; ATCC33591, passage 25, selection group DAP + TMP/SMX): 4 µg/mL
- MIC ([1]; ATCC33591, passage 25, selection group DAP + TR-700): 4 µg/mL
- MIC ([1]; ATCC33591, passage 25, selection group DAP + VAN): 8 µg/mL
- MIC ([1]; ATCC33591, passage 30, selection group DAP): 4 µg/mL (≈ 2.76 µM)
- MIC ([1]; ATCC33591, passage 30, selection group DAP + TMP/SMX): 4 µg/mL
- MIC ([1]; ATCC33591, passage 30, selection group DAP + TR-700): 2 µg/mL
- MIC ([1]; ATCC33591, passage 30, selection group DAP + VAN): 4 µg/mL
- MIC ([2]; NRS123, passage 0, NRS123 WT): 1 µg/mL (≈ 0.69 µM)
- MIC ([2]; NRS123, passage 5, selection group DAP): 2 µg/mL (≈ 1.38 µM)
- MIC ([2]; NRS123, passage 5, selection group DAP + CLI): 4 µg/mL
- MIC ([2]; NRS123, passage 5, selection group DAP + LZD): 4 µg/mL
- MIC ([2]; NRS123, passage 5, selection group DAP + TET): 2 µg/mL
- MIC ([2]; NRS123, passage 5, selection group DAP + TIA): 2 µg/mL
- MIC ([2]; NRS123, passage 5, selection group DAP + TMP/SMX): 8 µg/mL
- MIC ([2]; NRS123, passage 5, selection group DAP + TR-700): 2 µg/mL
- MIC ([2]; NRS123, passage 5, selection group DAP + TR-705): 4 µg/mL
- MIC ([2]; NRS123, passage 5, selection group DAP + VAN): 4 µg/mL
- MIC ([2]; NRS123, passage 10, selection group DAP): 4 µg/mL (≈ 2.76 µM)
- MIC ([2]; NRS123, passage 10, selection group DAP + CLI): 4 µg/mL
- MIC ([2]; NRS123, passage 10, selection group DAP + LZD): 8 µg/mL
- MIC ([2]; NRS123, passage 10, selection group DAP + TET): 2 µg/mL
- MIC ([2]; NRS123, passage 10, selection group DAP + TIA): 4 µg/mL
- MIC ([2]; NRS123, passage 10, selection group DAP + TMP/SMX): 8 µg/mL
- MIC ([2]; NRS123, passage 10, selection group DAP + TR-700): 2 µg/mL
- MIC ([2]; NRS123, passage 10, selection group DAP + TR-705): 2 µg/mL
- MIC ([2]; NRS123, passage 10, selection group DAP + VAN): 4 µg/mL
- MIC ([2]; NRS123, passage 15, selection group DAP): 8 µg/mL (≈ 5.52 µM)
- MIC ([2]; NRS123, passage 15, selection group DAP + CLI): 8 µg/mL
- MIC ([2]; NRS123, passage 15, selection group DAP + LZD): 8 µg/mL
- MIC ([2]; NRS123, passage 15, selection group DAP + TET): 0.5 µg/mL
- MIC ([2]; NRS123, passage 15, selection group DAP + TIA): 4 µg/mL
- MIC ([2]; NRS123, passage 15, selection group DAP + TMP/SMX): 8 µg/mL
- MIC ([2]; NRS123, passage 15, selection group DAP + TR-700): 2 µg/mL
- MIC ([2]; NRS123, passage 15, selection group DAP + TR-705): 2 µg/mL
- MIC ([2]; NRS123, passage 15, selection group DAP + VAN): 8 µg/mL
- MIC ([2]; NRS123, passage 20, selection group DAP): 8 µg/mL (≈ 5.52 µM)
- MIC ([2]; NRS123, passage 20, selection group DAP + CLI): 8 µg/mL
- MIC ([2]; NRS123, passage 20, selection group DAP + LZD): 8 µg/mL
- MIC ([2]; NRS123, passage 20, selection group DAP + TET): 1 µg/mL
- MIC ([2]; NRS123, passage 20, selection group DAP + TIA): 4 µg/mL
- MIC ([2]; NRS123, passage 20, selection group DAP + TMP/SMX): 8 µg/mL
- MIC ([2]; NRS123, passage 20, selection group DAP + TR-700): 2 µg/mL
- MIC ([2]; NRS123, passage 20, selection group DAP + TR-705): 2 µg/mL
- MIC ([2]; NRS123, passage 20, selection group DAP + VAN): 8 µg/mL
- MIC ([2]; NRS123, passage 25, selection group DAP): 4 µg/mL (≈ 2.76 µM)
- MIC ([2]; NRS123, passage 25, selection group DAP + CLI): 8 µg/mL
- MIC ([2]; NRS123, passage 25, selection group DAP + LZD): 8 µg/mL
- MIC ([2]; NRS123, passage 25, selection group DAP + TET): 1 µg/mL
- MIC ([2]; NRS123, passage 25, selection group DAP + TIA): 2 µg/mL
- MIC ([2]; NRS123, passage 25, selection group DAP + TMP/SMX): 8 µg/mL
- MIC ([2]; NRS123, passage 25, selection group DAP + TR-700): 2 µg/mL
- MIC ([2]; NRS123, passage 25, selection group DAP + TR-705): 2 µg/mL
- MIC ([2]; NRS123, passage 25, selection group DAP + VAN): 8 µg/mL
- MIC ([2]; NRS123, passage 30, selection group DAP): 2 µg/mL (≈ 1.38 µM)
- MIC ([2]; NRS123, passage 30, selection group DAP + CLI): 8 µg/mL
- MIC ([2]; NRS123, passage 30, selection group DAP + LZD): 2 µg/mL
- MIC ([2]; NRS123, passage 30, selection group DAP + TET): 1 µg/mL
- MIC ([2]; NRS123, passage 30, selection group DAP + TIA): 4 µg/mL
- MIC ([2]; NRS123, passage 30, selection group DAP + TMP/SMX): 8 µg/mL
- MIC ([2]; NRS123, passage 30, selection group DAP + TR-700): 2 µg/mL
- MIC ([2]; NRS123, passage 30, selection group DAP + TR-705): 2 µg/mL
- MIC ([2]; NRS123, passage 30, selection group DAP + VAN): 4 µg/mL
- MIC ([2]; NRS123, read-out: DAP MIC by the end of the experiment (selection of DAP^ns strains), MW2, passaged with DAP alone or with co-selecting agent at ¼ MIC, CLSI breakpoint): > 1 µg/mL
- effect on preventing the emergence of DAP^ns ([2]; co-selection at ¼ MIC, VAN: both backgrounds): had an effect on preventing the emergence of DAP^ns strains
- DAP/VAN cross-resistance ([2]; co-selection with VAN, both backgrounds): cross-resistance was observed
